In ChEMBL document CHEMBL1201862, “PubChem BioAssay data set” (2004):
Calls of active or inactive are those of the source.

Assays:
[1] = molecular target: fMet-Leu-Phe receptor (Homo sapiens, UniProt P21462); assay: formyl peptide receptor binders – dose response (AID 519); format: functional
[2] = viability loss in HEK293T cells – cell-based, cherry-picks, cytotoxicity control for HIV Vif inhibitor project, dose response (AID 652208); format: functional
[3] = tested on: Vero; assay: cells; format: functional; settings: Chlorocebus sabaeus
[4] = tested on: Vero; assay: viability loss in Vero cells – cell-based, plate reader, cherry-pick samples, cytotoxicity control, dose response (AID 687020); format: functional; settings: Chlorocebus sabaeus
[5] = Late stage assay provider results from the probe development effort to identify selective inhibitors of heat shock protein 90 (HSP90): Absorbance-based cell proliferation assay in MCF7 cells.; format: functional
[6] = Late stage assay provider results from the probe development effort to identify selective inhibitors of heat shock protein 90 (HSP90): Absorbance-based cell proliferation assay in SKBR3 cells.; format: functional; settings: SK-BR-3
[7] = T. cruzi growth inhibition in host cells, dose response, cell-based, plate reader, dry powder, set 2 (AID 652275); format: functional
[8] = molecular target: Nonstructural protein 1 (Influenza A virus, UniProt Q194T2); format: functional, Influenza A virus (A/California/07/2009(H1N1))
[9] = molecular target: Albumin (Bos taurus, UniProt P02769); assay: Counterscreen for inhibitors of T-cell receptor (TCR)-CD3 interaction: Fluorescence-based biochemical high throughput dose response assay to identify inhibitors of T-cell receptor (TCR)-CD3 interaction using a TAMRA-labeled BSA probe.; format: functional
[10] = molecular target: T1, Protein RecA (Mycobacterium tuberculosis, UniProt P9WHJ3); assay: Fluorescence Cell-Free Homogeneous Dose Retest to Identify Inhibitors of RecA-Intein Splicing Activity. [Related pubchem assays (depositor defined):AID2097, AID2223, AID489010, AID492950]; format: functional
T1 sequence (P9WHJ3 whole entry): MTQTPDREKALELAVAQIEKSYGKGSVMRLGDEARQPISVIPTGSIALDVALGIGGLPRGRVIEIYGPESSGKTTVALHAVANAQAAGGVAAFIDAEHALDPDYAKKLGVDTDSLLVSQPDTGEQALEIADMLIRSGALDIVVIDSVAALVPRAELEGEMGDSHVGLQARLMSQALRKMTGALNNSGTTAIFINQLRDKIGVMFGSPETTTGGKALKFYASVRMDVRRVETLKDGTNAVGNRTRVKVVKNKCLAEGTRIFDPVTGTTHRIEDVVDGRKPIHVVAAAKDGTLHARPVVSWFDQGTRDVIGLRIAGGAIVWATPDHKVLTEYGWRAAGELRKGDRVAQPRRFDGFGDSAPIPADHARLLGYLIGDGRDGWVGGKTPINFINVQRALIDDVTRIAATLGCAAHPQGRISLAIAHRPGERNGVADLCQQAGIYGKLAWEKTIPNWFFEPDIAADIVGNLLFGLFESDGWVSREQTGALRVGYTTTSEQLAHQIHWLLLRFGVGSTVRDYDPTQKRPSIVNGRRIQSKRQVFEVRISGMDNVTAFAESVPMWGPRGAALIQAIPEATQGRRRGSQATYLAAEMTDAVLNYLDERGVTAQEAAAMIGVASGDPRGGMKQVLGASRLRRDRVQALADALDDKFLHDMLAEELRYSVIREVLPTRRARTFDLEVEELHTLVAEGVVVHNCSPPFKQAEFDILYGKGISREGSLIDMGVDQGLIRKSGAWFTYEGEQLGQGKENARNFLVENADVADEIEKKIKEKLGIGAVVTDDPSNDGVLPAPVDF

[11] = molecular target: T2, Replicative DNA helicase DnaB (Mycobacterium tuberculosis, UniProt P9WMR3); assay: DnaB intein splicing inhibitors, dose response, biochemical, cell-free fluorescence (AID 449749); format: functional
T2 sequence (P9WMR3 whole entry): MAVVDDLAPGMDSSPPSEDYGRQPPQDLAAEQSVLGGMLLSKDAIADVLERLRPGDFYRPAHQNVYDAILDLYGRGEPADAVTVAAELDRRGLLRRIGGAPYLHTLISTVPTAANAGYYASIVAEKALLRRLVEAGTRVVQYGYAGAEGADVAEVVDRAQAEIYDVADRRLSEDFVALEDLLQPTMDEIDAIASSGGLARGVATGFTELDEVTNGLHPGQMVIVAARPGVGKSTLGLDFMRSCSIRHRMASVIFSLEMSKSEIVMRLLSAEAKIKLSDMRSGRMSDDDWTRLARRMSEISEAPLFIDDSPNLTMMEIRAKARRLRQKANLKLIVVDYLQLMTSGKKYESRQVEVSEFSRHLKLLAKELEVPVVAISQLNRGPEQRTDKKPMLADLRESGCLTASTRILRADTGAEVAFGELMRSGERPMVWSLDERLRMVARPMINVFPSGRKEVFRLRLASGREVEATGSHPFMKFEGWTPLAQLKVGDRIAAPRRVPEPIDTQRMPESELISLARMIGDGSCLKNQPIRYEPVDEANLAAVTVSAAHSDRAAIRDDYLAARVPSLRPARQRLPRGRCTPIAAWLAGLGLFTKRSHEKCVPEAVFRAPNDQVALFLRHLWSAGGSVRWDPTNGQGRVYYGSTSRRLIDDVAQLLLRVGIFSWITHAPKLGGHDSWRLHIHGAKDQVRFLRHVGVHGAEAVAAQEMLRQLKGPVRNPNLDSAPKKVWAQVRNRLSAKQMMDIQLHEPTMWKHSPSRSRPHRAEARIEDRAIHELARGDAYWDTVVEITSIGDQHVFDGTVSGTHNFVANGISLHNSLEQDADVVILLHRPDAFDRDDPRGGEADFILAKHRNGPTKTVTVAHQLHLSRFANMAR

[12] = molecular target: T3, Sentrin-specific protease 8 (Homo sapiens, UniProt Q96LD8); format: functional
T3 sequence (Q96LD8 whole entry): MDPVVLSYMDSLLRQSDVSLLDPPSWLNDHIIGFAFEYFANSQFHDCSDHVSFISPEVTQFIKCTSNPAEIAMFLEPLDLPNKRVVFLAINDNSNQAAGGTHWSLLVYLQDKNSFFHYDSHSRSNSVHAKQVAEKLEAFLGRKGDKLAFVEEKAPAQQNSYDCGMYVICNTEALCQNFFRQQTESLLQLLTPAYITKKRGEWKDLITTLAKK

[13] = molecular target: T4, Caspase-3 (Homo sapiens, UniProt P42574); assay: Dose-response confirmation of uHTS inhibitor hits of Sentrin-Specific Protease 8 in a Caspase-3 Fluorescence assay.; format: functional
T4 sequence (P42574 whole entry): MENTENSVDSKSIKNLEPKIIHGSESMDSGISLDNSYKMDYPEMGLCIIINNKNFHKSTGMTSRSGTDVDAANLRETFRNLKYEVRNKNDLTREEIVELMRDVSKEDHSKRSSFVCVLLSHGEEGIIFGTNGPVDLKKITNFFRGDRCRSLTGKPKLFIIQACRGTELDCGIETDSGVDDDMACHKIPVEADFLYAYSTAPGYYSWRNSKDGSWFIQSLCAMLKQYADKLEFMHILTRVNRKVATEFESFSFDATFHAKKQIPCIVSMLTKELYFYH

[14] = molecular target: T3, Sentrin-specific protease 8; format: functional; remark: listed apart in the source
[15] = molecular target: T5, Caspase-6 (Homo sapiens, UniProt P55212); assay: inhibition of CASP6 peptide cleavage – biochemical, VEID-R110 fluorescence, cherry-pick, dose response (AID 720632)
T5 sequence (P55212 whole entry): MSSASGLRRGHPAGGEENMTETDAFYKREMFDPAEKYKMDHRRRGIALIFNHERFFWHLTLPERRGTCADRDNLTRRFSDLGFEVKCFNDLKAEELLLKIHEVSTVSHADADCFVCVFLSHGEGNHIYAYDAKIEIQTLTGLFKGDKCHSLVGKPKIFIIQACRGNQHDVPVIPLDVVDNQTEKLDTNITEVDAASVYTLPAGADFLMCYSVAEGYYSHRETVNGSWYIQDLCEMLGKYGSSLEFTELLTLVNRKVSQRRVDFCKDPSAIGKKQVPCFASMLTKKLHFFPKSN

Chain of Albumin (P02769 whole entry): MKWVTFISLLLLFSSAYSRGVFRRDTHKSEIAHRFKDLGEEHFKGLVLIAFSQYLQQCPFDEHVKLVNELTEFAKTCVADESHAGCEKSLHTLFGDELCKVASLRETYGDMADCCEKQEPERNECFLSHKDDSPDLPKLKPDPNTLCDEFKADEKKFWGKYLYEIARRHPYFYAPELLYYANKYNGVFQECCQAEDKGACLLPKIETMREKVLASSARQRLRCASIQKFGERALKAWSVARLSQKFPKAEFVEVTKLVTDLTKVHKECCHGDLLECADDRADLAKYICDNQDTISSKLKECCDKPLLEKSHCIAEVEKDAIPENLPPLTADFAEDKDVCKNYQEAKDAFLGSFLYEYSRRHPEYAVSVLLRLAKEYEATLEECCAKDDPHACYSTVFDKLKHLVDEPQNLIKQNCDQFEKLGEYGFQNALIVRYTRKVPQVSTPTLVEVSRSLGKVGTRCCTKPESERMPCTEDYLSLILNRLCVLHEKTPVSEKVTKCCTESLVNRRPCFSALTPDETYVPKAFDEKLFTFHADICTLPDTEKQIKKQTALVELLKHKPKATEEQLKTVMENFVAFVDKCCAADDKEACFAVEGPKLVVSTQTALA
Chain of fMet-Leu-Phe receptor (P21462 whole entry): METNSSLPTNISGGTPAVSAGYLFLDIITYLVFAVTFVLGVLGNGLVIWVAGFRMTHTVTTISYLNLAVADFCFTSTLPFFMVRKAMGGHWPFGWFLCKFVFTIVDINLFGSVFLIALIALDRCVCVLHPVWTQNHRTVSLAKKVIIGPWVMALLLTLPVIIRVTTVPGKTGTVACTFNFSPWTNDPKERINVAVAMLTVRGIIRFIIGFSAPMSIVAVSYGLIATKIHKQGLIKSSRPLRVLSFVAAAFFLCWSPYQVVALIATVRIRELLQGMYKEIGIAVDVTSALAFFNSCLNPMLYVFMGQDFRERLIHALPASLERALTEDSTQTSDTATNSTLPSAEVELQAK
Chain of Nonstructural protein 1 (Q194T2 whole entry): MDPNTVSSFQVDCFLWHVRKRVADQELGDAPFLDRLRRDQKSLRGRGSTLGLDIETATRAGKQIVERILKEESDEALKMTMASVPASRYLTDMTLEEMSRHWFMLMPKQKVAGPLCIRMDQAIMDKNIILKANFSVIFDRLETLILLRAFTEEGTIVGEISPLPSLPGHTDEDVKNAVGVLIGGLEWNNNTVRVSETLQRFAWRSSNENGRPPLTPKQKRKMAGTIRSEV

Question: For `CCC(SC1=Nc2ccccc2C2=NC(CC(C)C)C(=O)N12)C(=O)Nc1ccc2c(c1)OCO2` (stereo not given), which Ki [1] is on record?
Answer: 37.6 µM (inactive)

Question: What does the source list for `CCn1cc(CN2CCCC(C(=O)Nc3cccc(-c4cc5ccccc5[nH]4)c3)C2)c(C)n1` (stereo not given)?
Answer: AC50 [2]: 40.9 µM (active); CC50 [3]: 24.9 µM (active)

Question: Which AC50 [4] does the source give for `CC1CCC(CN2CCN=C2Nc2ccccc2)CC1` (stereo not given) here?
Answer: 31.6 µM (active)

Question: Which results are given for `CCOc1ccc(NC(=O)c2cc(=O)c(OC)c[nH]2)cc1`?
Answer: IC50 [5]: > 100 µM (inactive); IC50 [6]: > 100 µM (inactive)

Question: With `CC(C)N1C[C@@H](CN(C)Cc2ccc(Cl)cc2)Oc2c(NC(=O)c3cn(C)cn3)cccc2C1=O` as the compound, how does the AC50 [7] read?
Answer: 0.0198 µM (active)

Question: Which IC50 [8] does the source give for `Nc1nnc(CC(=O)N/N=C\c2cc([N+](=O)[O-])ccc2O)s1` here?
Answer: 7.93 µM (active)

Question: And the IC50 [9]?
Answer: > 94.1 µM (inactive)

Question: Which results are given for `CCOC(=O)c1nn(-c2ccc(OC)cc2)c(=O)c2c(N)scc12`?
Answer: EC50 [10]: 1.59 µM (active); AC50 [11]: 23.2 µM (active); IC50 [12]: 6.99 µM (active); IC50 [13]: 23 µM (active); IC50 [14]: 5.63 µM (active); AC50 [15]: 34.3 µM (active)
